These results are taken from PMC6033897, “Characterization and Validation of a Human 3D Cardiac Microtissue for the Assessment of Changes in Cardiac Pathology” (Scientific Reports, 2018).

Counter-ions that a name gives are not always drawn.

The conditions of series [1]: total Cmax, therapeutically relevant maximum total plasma concentration; source not given; cited from earlier work.
Series [2] relates to cardiac microtissues. Put plainly: ER integrity (ER-Tracker blue imaging) in cardiac microtissues. The note with it: for IC50: read-out: ER integrity IC50. Type of series: cell-based, human. As to the method:
(§1) Cardiac microtissues were stained with fluorescent probes in cell culture media, 40 µl media was removed and 40 µl of 2x multiplexed dye was added back to the well for 30 minutes at 37 °C, 5% CO2. Fluorescent probes used were ER-Tracker blue (2 µM) to measure endoplasmic reticulum (ER) integrity and TMRE (500 nM) to measure mitochondrial membrane potential (ΔΨm). All microtissues were imaged on a Cell Voyager 7000 (YokogawaInc.) and images captured using a 20x objective (Olympus UPLSAPO 0.75 NA, 0.6 mm WD), with a 2 × 2 bin. Plates are imaged live, prior to use the stage temperature was set to 37 °C and CO2 level at 5%. […] Transmitted light images were acquired using a 100 W Halogen lamp as an illumination source. Images were captured over a 60 μm range in the Z-axis with a 5 μm interval between slices. Z-stack images were output as a maximal projection of multiple z-planes.
(§2) Maximum projection images were imported and analysed in the Columbus Platform (v2.7, Perkin Elmer Inc.).

The test system of series [3] is cardiac microtissues. Put plainly: Mitochondrial membrane potential (ΔΨm, TMRE imaging) in cardiac microtissues. It is filed as cell-based, human. Particulars: for IC50: read-out: Mitochondrial membrane potential (ΔΨm) IC50. As to the method: as §1, §2
In series [4] the test system is cardiac microtissues. Kind of series: Cellular viability (ATP depletion, CellTiter-Glo) in cardiac microtissues. It is filed as cell-based, human. Particulars: for IC50: read-out: Cellular viability (ATP depletion) IC50. Here is the method: (§3) Cellular ATP concentrations were assessed using the CellTiter-Glo® Luminescent Cell Viability Assay as per the manufacturer’s instructions (Promega); for cardiac microtissues 40 µl media was removed prior to the addition of 40 µl CellTiter-Glo® reagent. […] Data from the same treatment on minimum of 3 occasions were averaged to represent the mean ATP measurement.

In series [5] the test system is hiPS-CM. Kind of series: ER integrity in 2D monoculture. Type of series: cell-based. Particulars: Homo sapiens. Here is the method:
(§4) For 2D monoculture, hiPS-CM, hCMEC and hCF were cultured as described above and seeded in CellCarrier-384 Ultra microplates (Perkin Elmer, 6057300) at 5000, 2500 and 1750 cells/well respectively.
(§5) Monoculture cells were stained with fluorescent probes diluted in cell culture media, 25 µl media was removed and 25 µl of 2x multiplexed dye was added back to the well for 15 minutes at 37 °C, 5% CO2.

The test system of series [6] is hCMEC. Put plainly: ER integrity in 2D monoculture. Type of series: cell-based. The note with it: Homo sapiens. Here is the method: as §4, §5
For series [7], the system named is hCF. Kind of series: Mitochondrial membrane potential (ΔΨm) in 2D monoculture. Particulars: Homo sapiens, read-out: Mitochondrial membrane potential (ΔΨm) IC50.
Series [8] concerns hCF. Kind of series: Cellular viability (ATP depletion) in 2D monoculture. The note with it: Homo sapiens, read-out: Cellular viability (ATP depletion) IC50.
Series [9] relates to hiPS-CM. The description is as above. Type of series: cell-based. Particulars: Homo sapiens, 72 hours. As to the method:
as §4, §3

Series [10] deals with hCMEC. The series is described as above. It is filed as cell-based. The note with it: Homo sapiens. Here is the method:
as §4, §3

Series [11] has as its system hiPS-CM. Kind of series: Mitochondrial membrane potential (ΔΨm) in 2D monoculture. It is filed as cell-based. The note with it: Homo sapiens. As to the method: as §4, §5
Series [12] relates to hCMEC. Described as above. Type of series: cell-based. Particulars: Homo sapiens. Here is the method: as §4, §5
Series [13] deals with hCF. Kind of series: ER integrity in 2D monoculture. Particulars: Homo sapiens, read-out: ER integrity IC50.
The mark [14] stands for this setting: Homo sapiens, cardiac microtissues, 72 hours, geometric mean.
[15] abbreviates: cardiac microtissues, 72 hours, geometric mean.
Setting [16] is: cardiac microtissues, mechanistic fingerprint.

With `C[C@@H]1[C@H](O)[C@@H](C)/C=C/C=C/C=C/C=C/C=C/C=C/C=C/[C@H](O[C@@H]2O[C@H](C)[C@@H](O)[C@H](N)[C@@H]2O)C[C@@H]2O[C@](O)(C[C@@H](O)C[C@@H](O)[C@H](O)CC[C@@H](O)C[C@@H](O)CC(=O)O[C@H]1C)C[C@H](O)[C@H]2C(=O)O` [Amphotericin B], the Cmax in [1] is 9000 nM. In addition, the figures for the IC50 in the series with cardiac microtissues [2] (setting [14]), with cardiac microtissues [3] (setting [14]) and in the series on cardiac microtissues [4] (setting [14]) were 3.56 µM, more than 50 µM and 37.6 µM, respectively.
In the case of `O=P1(N(CCCl)CCCl)NCCCO1` (stereo not drawn) [Cyclophosphamide], the Cmax in series [1] was 153000 nM. The IC50 is 60.7 µM with cardiac microtissues [2] (Homo sapiens, 72 h); 65.7 µM with cardiac microtissues [3] (Homo sapiens, 72 h); 54.4 µM in the series on cardiac microtissues [4] (Homo sapiens, 72 h).
Turning to `COC(=O)Nc1nc2ccc(C(=O)c3ccccc3)cc2[nH]1` [Mebendazole], the Cmax in series [1] was 2030 nM. Further, the IC50 in the series with cardiac microtissues [2] (setting [14]) was 5.97 µM; in the series on cardiac microtissues [3] (setting [14]) it was more than 50 µM; with cardiac microtissues [4] (setting [14]), more than 50 µM.
With `O=C(C1CCCCC1)N1CC(=O)N2CCc3ccccc3C2C1` (stereo not drawn) [Praziquantel], in [1], the Cmax was 640 nM. For the same compound, the IC50 is 0.82 µM in the series on cardiac microtissues [2] (setting [14]), more than 100 µM in the series on cardiac microtissues [3] (setting [14]) and 10.1 µM in the series with cardiac microtissues [4] (setting [14]).
Take `CN1CCN(C2=Nc3cc(Cl)ccc3Nc3ccccc32)CC1` [Clozapine]: the Cmax in series [1] is 470 nM.
As for `CN(C)CCN(Cc1cccs1)c1ccccn1` [Methapyrilene], the Cmax in [1] is 15300 nM.
For `CC(C)C[C@H](NC(=O)[C@H](Cc1ccccc1)NC(=O)c1cnccn1)B(O)O` [Bortezomib], the Cmax in [1] is 290 nM. For the same compound, the IC50 in the series on cardiac microtissues [2] (setting [14]) worked out at 91.8 µM; in the series with cardiac microtissues [3] (setting [14]), 1.62 µM; in the series on cardiac microtissues [4] (setting [14]), 0.35 µM.
In the case of `O=C1C[C@@H](c2ccc(O)cc2)Oc2cc(O)cc(O)c21` [Narigenin], the highest concentration (Cmax) in [1] was 15400 nM. In addition, the IC50 with cardiac microtissues [2] (setting [15]) is more than 100 µM; in the series with cardiac microtissues [3] (setting [15]) it was more than 100 µM; with cardiac microtissues [4] (setting [15]), 62.5 µM.
`COc1cc(N)c(Cl)cc1C(=O)NC1CCN(CCCOc2ccc(F)cc2)CC1OC` (stereo not drawn) [Cisapride Hydrate]: the Cmax in series [1] is 170 nM. In addition, the IC50 was 32.8 µM in the series on cardiac microtissues [2] (setting [15]), more than 100 µM in the series on cardiac microtissues [3] (setting [15]) and 76.4 µM in the series with cardiac microtissues [4] (setting [15]).
In the case of `O=C1CC2(CCCC2)CC(=O)N1CCCCN1CCN(c2ncccn2)CC1` [Buspirone HCl], in series [1], the Cmax was 30 nM. Also, the IC50 with cardiac microtissues [2] (setting [14]) is more than 100 µM; with cardiac microtissues [3] (setting [14]), more than 100 µM; in the series on cardiac microtissues [4] (setting [14]), 56.4 µM.
In the case of `Nc1cc(N2CCCCC2)nc(N)[n+]1[O-]` [Minoxidil], in series [1], the Cmax was 14800 nM. In addition, the IC50 with cardiac microtissues [2] (setting [14]), in the series with cardiac microtissues [3] (setting [14]) and in the series on cardiac microtissues [4] (setting [14]) was more than 50 µM in each case.
On to `O=C1c2c(O)ccc(O)c2C(=O)c2c(NCCNCCO)ccc(NCCNCCO)c21` [Mitoxantrone diHCl], for which the IC50 was 1.1 µM in the series with cardiac microtissues [2] (setting [14]), 0.98 µM with cardiac microtissues [3] (setting [14]) and 0.29 µM in the series with cardiac microtissues [4] (setting [14]).
As to `CC(=O)[C@]1(O)Cc2c(O)c3c(c(O)c2[C@@H](O[C@H]2C[C@H](N)[C@H](O)[C@H](C)O2)C1)C(=O)c1ccccc1C3=O` [Idarubicin HCl], the Cmax in [1] is 120 nM. Besides, the IC50 with cardiac microtissues [2] (setting [14]) was 1.67 µM; in the series on cardiac microtissues [3] (setting [14]), 0.97 µM; in the series with cardiac microtissues [4] (setting [14]), 0.03 µM.
Take `CC(C(=O)O)c1cccc(C(=O)c2ccccc2)c1` (stereo not drawn) [Ketoprofen]: the IC50 is more than 100 µM in the series on cardiac microtissues [2] (setting [14]), more than 100 µM in the series with cardiac microtissues [3] (setting [14]) and 37.6 µM with cardiac microtissues [4] (setting [14]).
On to `CS(=O)(=O)CCNCc1ccc(-c2ccc3ncnc(Nc4ccc(OCc5cccc(F)c5)c(Cl)c4)c3c2)o1` [Lapatinib], for which, in series [1], the Cmax is 4180 nM. The IC50 with hiPS-CM [5] (24 hours) amounted to 23.6 µM; with hiPS-CM [5] (72 hours), 3.1 µM; in the series with hCMEC [6] (24 hours), 26.7 µM; in the series on hCMEC [6] (72 hours), 4.4 µM; in the series with hCF [7] (24 h), 42.9 µM; with hCF [7] (72 h) it was 28.8 µM. Moreover, the IC50 with hCF [8] (24 h) is 21.6 µM; with hCF [8] (72 h), 11 µM; in the series on hiPS-CM [9], more than 100 µM; with hCMEC [10] (24 hours), 16.2 µM; in the series with hCMEC [10] (72 hours) it was 3.07 µM; in the series on cardiac microtissues [2] (setting [14]) it was more than 100 µM. Also, the IC50 worked out at 2.84 µM with cardiac microtissues [3] (setting [14]); 12.9 µM with cardiac microtissues [4] (setting [14]); 31.9 µM with hiPS-CM [11] (24 hours); 23.6 µM with hiPS-CM [11] (72 hours); 5.47 µM in the series with hCMEC [12] (24 hours); 11.6 µM in the series on hCMEC [12] (72 hours). Besides, the half-inhibitory concentration (IC50) in the series on hCF [13] (24 h) is 14.7 µM; in the series with hCF [13] (72 h) it was 11 µM. In addition, in the series on cardiac microtissues [2] (setting [16]), the “ER integrity modulated at multiple of total Cmax” value is recorded as not above 100 times the total Cmax. In the series on cardiac microtissues [3] (setting [16]), the “ΔΨm modulated at multiple of total Cmax” value is recorded as not above 1 times the total Cmax. Further, the “Cellular viability modulated at multiple of total Cmax” value with cardiac microtissues [4] (setting [16]) was not above 10 times the total Cmax.
As for `O=c1[nH]cc(F)c(=O)[nH]1` [Fluorouracil], in series [1], the Cmax is 4610 nM. Besides, the half-inhibitory concentration (IC50) with cardiac microtissues [2] (setting [14]) came to 60 µM; with cardiac microtissues [3] (setting [14]) it was 11.3 µM; with cardiac microtissues [4] (setting [14]) it was 27.5 µM.
Take `C#Cc1cccc(Nc2ncnc3cc(OCCOC)c(OCCOC)cc23)c1` [Erlotinib]: the Cmax in series [1] was 3000 nM. Besides, the IC50 was more than 30 µM in the series on cardiac microtissues [2] (setting [14]), more than 30 µM in the series with cardiac microtissues [3] (setting [14]) and 20.8 µM in the series with cardiac microtissues [4] (setting [14]).
Turning to `Nc1nc2c(ncn2COCCO)c(=O)[nH]1` [Acyclovir], the Cmax in series [1] was 6660 nM. For the same compound, the IC50 in the series with cardiac microtissues [2] (setting [14]), in the series on cardiac microtissues [3] (setting [14]) and with cardiac microtissues [4] (setting [14]) was more than 100 µM in each case.
As to `CC(C)NCC(O)c1ccc(O)c(O)c1` (stereo not drawn) [Isoproterenol HCl], the Cmax in series [1] is 10 nM. The figures for the IC50 in the series on cardiac microtissues [2] (setting [14]), with cardiac microtissues [3] (setting [14]) and in the series with cardiac microtissues [4] (setting [14]) were 76.9 µM, 59.2 µM and more than 100 µM, respectively.
`Cc1ccc(C)c(OCCCC(C)(C)C(=O)O)c1` [Gemfibrozil]: in series [1], the Cmax was 99900 nM. Also, the IC50 in the series on cardiac microtissues [2] (setting [14]), in the series with cardiac microtissues [3] (setting [14]) and in the series on cardiac microtissues [4] (setting [14]) was more than 100 µM throughout.
`CC(C)(C)c1ccc(C(O)CCCN2CCC(C(O)(c3ccccc3)c3ccccc3)CC2)cc1` (stereo not drawn) [Terfenadine]: the Cmax in [1] was 130 nM. For the same compound, the IC50 in the series with cardiac microtissues [2] (setting [14]) was 23.7 µM; with cardiac microtissues [3] (setting [14]), more than 100 µM; in the series on cardiac microtissues [4] (setting [14]) it was 13 µM.
